Assay results as given in patent publication US8772252B2, “Coumarin compounds as melanogenesis modifiers and uses thereof” (New York University, priority 2011, dated 2014).

System: cultured murine melanocytes (melan-a)
Test: Melanin assay in cultured murine melanocytes (melan-a) screened with library compounds
Type: cell-based
Settings: melan-a cells, 72 hours of incubation
Method: The Spectrum Collection library consisting of 2000 drug compounds or natural products represents a source for the identification of compounds useful in the present invention. The library may be screened to identify novel pigmentation inhibitors in cultured murine melanocytes (melan-a). Compounds are dissolved in dimethylsulfoxide (DMSO) to a final concentration of 10 mM. Screening is performed with cultured melanocytes in 24-well plates followed by melanin assay (see below). A minimum change of 50% in melanin formation is established as significant for a pigmentation inhibitor. DMSO may be used as a negative control and the widely used depigmenting agent, hydroquinone, may be used as a positive control on every plate. Primary screening is performed at a final concentration of 1 μM and potential candidates from the primary screening are reconfirmed in duplicate at final concentrations of 1 and 5 μM.
Melan-a cells are plated at 5×10^4 cells per well in 1 ml of culture media in 24-well plates the day before adding the library compounds. All compounds are added at the indicated final concentrations. Cells are harvested after 72 hours of incubation, and the melanin assay is performed.
For further test and mechanism of action studies, the compounds may be purchased from Sigma, MicroSource or other known suppliers. The compounds are dissolved in dimethylsulfoxide (DMSO) to a final concentration of 10 mM, and are tested for their effect on melanin synthesis at the indicated final concentrations.
For the primary and secondary screening, cells were harvested and dissolved in 200 μl of 2N NaOH in 20% DMSO at 70° C. A 180-μl aliquot of the resulting solution was measured for absorbance at 490 nm.
Cells are harvested in extraction buffer (1% Triton X-100, 50 mM Tris, 2 mM EDTA, 150 mM NaCl, pH 7.5) containing a complete protease inhibitor cocktail (Roche). The lysates were centrifuged at 14,000 rpm for 10 minutes at 4° C. BCA protein assay kit (Pierce) was used to measure the protein concentrations of the supernatants, and bovine serum albumin was used as a standard. The remaining pellets were incubated with 100 μl ethanol-ether (1:1) for 10 minutes at room temperature. After removing the ethanol-ether, the pellets were dissolved in 200 μl of 2N NaOH in 20% DMSO at 70° C. A 180-μl aliquot of the resulting solution was measured for absorbance at 490 nm. The melanin contents were normalized to the total amount of protein.

SMILES	activity at 1 µM (Mus musculus, Melan-a, 72 h, 1 μM, read-out: % of control melanin remaining after treatment @ 1 μM) [%]	activity at 5 µM (Mus musculus, Melan-a, 72 h, 5 μM, read-out: % of control melanin remaining after treatment @ 5 μM) [%]	% of control melanin remaining after treatment @ 1 μM (1 μM) [%]	% of control melanin remaining after treatment @ 5 μM (5 μM) [%]
CC(C)(OC(=O)c1ccccc1)[C@@H]1Cc2cc3ccc(=O)oc3cc2O1 [compound 36]	81	87		
COc1c(C(C)C)oc2cc3oc(=O)ccc3cc12 [compound 40]			97	88
